For the test, the target named is human P2X3 receptor (Homo sapiens (Human), UniProt P56373). Kind of test: P2X3 receptor inhibition, ATP-evoked Fluo-3 calcium fluorescence (FDSS 3000). The note with it: C6BU-1 cell transfected with human P2X3 receptor gene; ATP-evoked Fluo-3 fluorescence. In kind it is cell-based. An outline of the steps:
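C6BU-1 cells stably transfected with human P2X3, loaded with 4 μM Fluo-3-AM for 1 h at 37 °C in HEPES buffer pH 7.5 with probenecid. Compound added 5 min before 40 nM ATP solution; fluorescence followed 3 min. IC50 from ratio of peak post-ATP to baseline fluorescence.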

As usually defined, the IC50 is the concentration needed to halve the response being measured.

human P2X3 receptor, sequence (P56373 whole entry): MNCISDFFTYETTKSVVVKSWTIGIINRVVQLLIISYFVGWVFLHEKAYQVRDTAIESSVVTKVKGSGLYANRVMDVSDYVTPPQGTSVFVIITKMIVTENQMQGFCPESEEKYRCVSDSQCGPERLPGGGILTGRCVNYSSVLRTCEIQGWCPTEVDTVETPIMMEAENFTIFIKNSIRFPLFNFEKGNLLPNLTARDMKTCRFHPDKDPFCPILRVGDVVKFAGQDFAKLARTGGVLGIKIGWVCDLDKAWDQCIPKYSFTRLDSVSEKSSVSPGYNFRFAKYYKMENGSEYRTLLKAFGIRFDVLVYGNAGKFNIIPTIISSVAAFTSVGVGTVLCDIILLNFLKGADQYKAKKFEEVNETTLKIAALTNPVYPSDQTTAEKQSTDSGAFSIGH

Consider `Cc1ccc(-c2ccc(N3C(=O)C(O)=C(C(=O)CC(C)C)C3c3ccccc3OC(C)C)cc2)o1` (stereo not shown) [Compound I-398], for which the IC50 came to 0.014 µM.

As for `COc1ccccc1C1C(C(=O)C(C)(C)C)=C(O)C(=O)N1c1ccc(-c2cccs2)cc1` (stereo not shown) [Compound I-079], the IC50 turned out to be 0.023 µM.

For `COCCOc1ncccc1C1C(C(=O)CC(C)C)=C(O)C(=O)N1c1ccc(SC)cc1` (stereo not shown) [Compound I-550], the IC50 is 0.254 µM.

In the case of `CC(C)CC(=O)C1=C(O)C(=O)N(c2ccc(-c3ccon3)cc2)C1c1ccccc1OC(C)C` (stereo not shown) [Compound I-306], the half-maximal inhibitory concentration (IC50) is 0.054 µM.

Take `CSc1ccc(N2C(=O)C(O)=C(C(=O)C(C)C)C2c2ccccc2OCC#N)cc1` (stereo not shown) [Compound I-509]: the IC50 was determined as 0.247 µM.

Turning to `Cc1nc(-c2ccc(N3C(=O)C(O)=C(C(=O)C(C)C)C3c3ccccc3OCC#N)cc2)no1` (stereo not shown) [Compound I-508], the IC50 is 0.133 µM.

Turning to `COc1ccccc1C1c2c(C(C)(C)C)nn(C(=O)OC(C)(C)C)c2C(=O)N1c1ccc(Br)cc1` (stereo not shown) [II-211], the IC50 stood at 0.135 µM.

On to `COc1ncccc1C1c2c(C(C)(C)C)n[nH]c2C(=O)N1c1ccc(-c2ccco2)nc1` (stereo not shown) [II-271], for which the half-maximal inhibitory concentration (IC50) came out at 0.153 µM.

`CC(C)COc1ccccc1C1C(C(=O)C(C)C)=C(O)C(=O)N1c1ccc(-c2ccon2)cc1` (stereo not shown) [Compound I-450]: the IC50 was found to be 0.036 µM.

For `CCc1ccccc1C1C(C(=O)C(C)(C)C)=C(O)C(=O)N1c1ccc(-c2ccon2)cc1` (stereo not shown) [Compound I-091], the half-maximal inhibitory concentration (IC50) amounted to 0.341 µM.

As to `COc1ccccc1C1c2c(C(C)(C)C)n[nH]c2C(=O)N1c1ccc(N(C)C)cc1` (stereo not shown) [II-202], the half-maximal inhibitory concentration (IC50) came out at 0.076 µM.

In the case of `COc1ncccc1C1C(C(=O)C(C)(C)C)=C(O)C(=O)N1c1ccc(-c2ccco2)cc1` (stereo not shown) [Compound I-117], the 50% inhibitory concentration (IC50) stood at 0.383 µM.

Consider `COCCOc1ccccc1[C@@H]1C(C(=O)C(C)C)=C(O)C(=O)N1c1ccc(-c2ccc(C)s2)cc1` [Compound I-465], for which the IC50 turned out to be 0.007 µM.

`COc1ccc(-c2n[nH]c3c2C(C2CCCCC2)N(Cc2cc(C)on2)C3=O)cc1` (stereo not shown) [II-200]: the IC50 was 0.448 µM.

In the case of `Cc1cc(-c2ccc(N3C(=O)C(O)=C(C(=O)CC(C)C)C3c3ccccc3OC(F)(F)F)cc2)cs1` (stereo not shown) [Compound I-378], the IC50 was determined as 0.192 µM.

`CC(C)CC(=O)C1=C(O)C(=O)N(c2ccc(-c3ccsc3)cc2)C1c1ccccc1C(=O)N(C)C` (stereo not shown) [Compound I-405]: the IC50 was 0.031 µM.

Regarding `CC(C)(C)C(=O)C1=C(O)C(=O)N(c2ccc(-c3ccco3)cc2)C1c1ccccc1OCCO` (stereo not shown) [Compound I-085], the IC50 came to 0.048 µM.

In the case of `COCCCOc1ncccc1C1C(C(=O)C(C)C)=C(O)C(=O)N1c1ccc(-c2ccsc2)cc1` (stereo not shown) [Compound I-565], the IC50 amounted to 0.013 µM.

For `CC(C)(C)c1n[nH]c2c1C(c1ccccc1OCC(N)=O)N(c1ccc(-c3ccon3)cc1)C2=O` (stereo not shown) [II-075], the 50% inhibitory concentration (IC50) was found to be 0.153 µM.

As to `COCCOc1ncccc1[C@H]1C(C(=O)C(C)C)=C(O)C(=O)N1c1ccc(-c2ccsc2)cc1` [Compound I-433], the 50% inhibitory concentration (IC50) came to 0.425 µM.

In the case of `Cc1ccc(-c2ccc(N3C(=O)C(O)=C(C(=O)C(C)C)C3c3ccccc3OC(F)(F)F)cc2)o1` (stereo not shown) [Compound I-359], the half-inhibitory concentration (IC50) turned out to be 0.024 µM.

Take `CC(C)OCc1ccccc1C1C(C(=O)C(C)C)=C(O)C(=O)N1c1ccc(-c2ccsc2)cc1` (stereo not shown) [Compound I-541]: the IC50 worked out at 0.01 µM.

On to `COCCOc1ccccc1C1C(C(=O)C(C)C)=C(O)C(=O)N1c1ccc(-c2csnn2)cc1` (stereo not shown) [Compound I-532], for which the IC50 was 0.204 µM.

As to `Cc1ccc(-c2ccc(N3C(=O)C(O)=C(C(=O)C(C)C)C3c3ccccc3OC(F)F)cc2)s1` (stereo not shown) [Compound I-333], the IC50 turned out to be 0.058 µM.

As for `COc1ccccc1[C@@H]1C(C(=O)CC(C)C)=C(O)C(=O)N1c1ccc(-c2ccsc2)cc1` [Compound I-279], the half-inhibitory concentration (IC50) worked out at 0.016 µM.

For the compound `CC(C)C(=O)C1=C(O)C(=O)N(c2ccc(-c3ccsc3)cc2)C1c1ccccc1OCC1OCCO1` (stereo not shown) [Compound I-551], the IC50 came to 0.005 µM.

As to `CC(C)C(=O)C1=C(O)C(=O)N(c2ccc(-c3ccon3)cc2)C1c1ccccc1OCC1CC1` (stereo not shown) [Compound I-588], the IC50 is 0.029 µM.

For the compound `CC(C)COc1ccccc1C1C(C(=O)C2CCCC2)=C(O)C(=O)N1c1ccc(-c2ccon2)cc1` (stereo not shown) [Compound I-513], the IC50 was 0.065 µM.

Turning to `COc1ccccc1C1c2c(CC(C)(C)C)n[nH]c2C(=O)N1c1ccc(-c2ccon2)cc1` (stereo not shown) [II-073], the IC50 amounted to 0.105 µM.

Take `COc1ncccc1C1c2c(C(C)(C)C)n[nH]c2C(=O)N1c1ccc(-c2ccoc2)cc1` (stereo not shown) [II-220]: the IC50 was found to be 0.069 µM.

Regarding `COCc1ccccc1C1C(C(=O)CC(C)C)=C(O)C(=O)N1c1ccc(-c2cscn2)cc1` (stereo not shown) [Compound I-422], the IC50 was found to be 0.361 µM.

In the case of `CSc1ccc(N2C(=O)C(O)=C(C(=O)C(C)(C)C)C2c2cccnc2OCCO)cc1` (stereo not shown) [Compound I-171], the IC50 came to 0.61 µM.

Regarding `CNC(=O)c1ccccc1C1c2c(C(C)C)n[nH]c2C(=O)N1c1ccc(-c2ccsc2)cc1` (stereo not shown) [II-092], the IC50 came to 0.002 µM.

Turning to `COc1ccccc1C1C(C(=O)C(C)(C)C)=C(O)C(=O)N1c1ccc(SC)cc1` (stereo not shown) [Compound I-052], the concentration for half-maximal inhibition (IC50) was determined as 0.187 µM.

As for `COCc1ccccc1C1C(C(=O)C(C)C)=C(O)C(=O)N1c1ccc(-c2noc(C)n2)cc1` (stereo not shown) [Compound I-310], the half-maximal inhibitory concentration (IC50) was 0.337 µM.

On to `COCc1ncccc1C1c2c(C(C)C)n[nH]c2C(=O)N1c1ccc(-c2ccsc2)cc1` (stereo not shown) [II-133], for which the concentration for half-maximal inhibition (IC50) was 0.116 µM.

For the compound `Cc1ccc(-c2ccc(N3C(=O)C(O)=C(C(=O)CC(C)C)C3c3ccccc3OC(F)(F)F)cc2)s1` (stereo not shown) [Compound I-338], the half-maximal inhibitory concentration (IC50) was 0.147 µM.

Turning to `COc1ccccc1C1c2c(C(C)(C)C)n[nH]c2C(=O)N1c1ccc(-c2ncco2)cc1` (stereo not shown) [II-209], the IC50 came to 0.087 µM.

For `CC(C)C(=O)C1=C(O)C(=O)N(c2ccc(-c3ccsc3)cc2)C1c1cccnc1OCC(N)=O` (stereo not shown) [Compound I-200], the IC50 was 0.014 µM.

Regarding `COCCNC(=O)c1ncccc1C1C(C(=O)CC(C)C)=C(O)C(=O)N1c1ccc(-c2ccc(C)s2)cc1` (stereo not shown) [Compound I-581], the IC50 came out at 0.466 µM.

For the compound `COc1cccc(C2C(C(=O)C(C)C)=C(O)C(=O)N2c2ccc(-c3ccsc3)cc2)c1` (stereo not shown) [Compound I-284], the IC50 came out at 0.3 µM.

Consider `CC(C)COc1ccccc1C1C(C(=O)C(C)C)=C(O)C(=O)N1c1ccc(-c2ccsc2)cc1` (stereo not shown) [Compound I-449], for which the IC50 is 0.013 µM.

Consider `COc1ccccc1C1c2c(C(C)C)n[nH]c2C(=O)N1c1ccc(-c2ccsc2)c(NC(C)=O)c1` (stereo not shown) [II-237], for which the half-maximal inhibitory concentration (IC50) was 0.853 µM.

With `Cc1nc(-c2ccc(N3C(=O)C(O)=C(C(=O)C(C)C)C3c3cccnc3OCCO)cc2)no1` (stereo not shown) [Compound I-178], the IC50 was determined as 0.374 µM.

Consider `COCCN(C)C(=O)c1ccccc1C1C(C(=O)C(C)C)=C(O)C(=O)N1c1ccc(-c2csc(C)c2)cc1` (stereo not shown) [Compound I-547], for which the half-inhibitory concentration (IC50) was found to be 0.217 µM.

For `Cc1cc(-c2ccc(N3C(=O)C(O)=C(C(=O)CC(C)C)C3c3ccccc3OCCO)cc2)on1` (stereo not shown) [Compound I-345], the half-inhibitory concentration (IC50) came to 0.999 µM.

As for `COc1ccccc1C1C(C(=O)C(C)(C)C)=C(O)C(=O)N1c1ccc(-c2ccco2)cc1` (stereo not shown) [Compound I-092], the concentration for half-maximal inhibition (IC50) was 0.092 µM.

As to `CC(C)Oc1ccccc1C1C(C(=O)C2CCCC2)=C(O)C(=O)N1c1ccc(-c2ccon2)cc1` (stereo not shown) [Compound I-512], the 50% inhibitory concentration (IC50) turned out to be 0.062 µM.

Consider `CSc1ccc(N2C(=O)c3[nH]nc(C(C)(C)C)c3C2c2cccnc2OCCO)cc1` (stereo not shown) [II-040], for which the 50% inhibitory concentration (IC50) was found to be 0.07 µM.

Take `CC(C)c1n[nH]c2c1C(c1cccnc1OCCO)N(c1ccc(-c3ccon3)cc1)C2=O` (stereo not shown) [II-044]: the concentration for half-maximal inhibition (IC50) was determined as 0.582 µM.

In the case of `Cc1cc(-c2ccc(N3C(=O)C(O)=C(C(=O)C(C)C)C3c3ccccc3C(=O)N3CCOCC3)cc2)cs1` (stereo not shown) [Compound I-546], the IC50 turned out to be 0.395 µM.

With `COCCOc1ccccc1C1C(C(=O)C(C)(C)C)=C(O)C(=O)N1c1ccc(-c2cccs2)cc1` (stereo not shown) [Compound I-123], the IC50 worked out at 0.013 µM.

As to `COCc1ncccc1C1C(C(=O)C(C)(C)C)=C(O)C(=O)N1c1ccc(-c2ccsc2)cc1` (stereo not shown) [Compound I-162], the IC50 came to 0.041 µM.

For `CN(C)c1ccccc1C1C(C(=O)C(C)(C)C)=C(O)C(=O)N1c1ccc(-c2ccon2)cc1` (stereo not shown) [Compound I-070], the IC50 is 0.519 µM.

For `Cc1ccc(-c2ccc(N3C(=O)C(O)=C(C(=O)CC(C)C)C3c3ccccc3OC(C)C)cc2)s1` (stereo not shown) [Compound I-402], the 50% inhibitory concentration (IC50) was found to be 0.08 µM.

In the case of `CC(C)c1n[nH]c2c1C(c1ccccc1NS(C)(=O)=O)N(c1ccc(-c3ccsc3)cc1)C2=O` (stereo not shown) [II-088], the half-maximal inhibitory concentration (IC50) was 0.004 µM.

On to `COc1ncccc1C1C(C(=O)C(C)C)=C(O)C(=O)N1c1ccc(-c2ccsc2)cc1` (stereo not shown) [Compound I-187], for which the IC50 was 0.086 µM.

As to `COCCOc1ccccc1C1c2c(C(C)(C)C)n[nH]c2C(=O)N1c1ccc(-c2ccon2)cc1` (stereo not shown) [II-018], the concentration for half-maximal inhibition (IC50) amounted to 0.022 µM.

In the case of `COc1ncccc1C1c2c(C(C)C)n[nH]c2C(=O)N1c1ccc(-c2ccsc2)cc1` (stereo not shown) [II-048], the concentration for half-maximal inhibition (IC50) amounted to 0.057 µM.

Regarding `CCCc1ccc(N2C(=O)C(O)=C(C(=O)C(C)(C)C)C2c2ccccc2OC)cc1` (stereo not shown) [Compound I-044], the half-maximal inhibitory concentration (IC50) was found to be 0.468 µM.

Consider `COCOc1ccccc1C1C(C(=O)C(C)C)=C(O)C(=O)N1c1ccc(-c2cccs2)cc1` (stereo not shown) [Compound I-227], for which the half-maximal inhibitory concentration (IC50) was 0.008 µM.

For `COCc1ccccc1C1C(C(=O)C(C)C)=C(O)C(=O)N1c1ccc2c(c1)cc(C)n2C` (stereo not shown) [Compound I-353], the half-inhibitory concentration (IC50) is 0.21 µM.

Consider `COc1ncccc1C1c2c(C(C)(C)C)n[nH]c2C(=O)N1c1ccc(Br)cn1` (stereo not shown) [II-259], for which the IC50 was 0.41 µM.

As for `Cc1cc(-c2ccc(N3C(=O)C(O)=C(C(=O)C(C)C)C3c3ccccc3OC(F)F)cc2)cs1` (stereo not shown) [Compound I-321], the IC50 stood at 0.07 µM.

For `COc1ccccc1C1C(C(=O)C(C)C)=C(O)C(=O)N1c1ccc(-c2cc(C)on2)cc1` (stereo not shown) [Compound I-457], the IC50 was found to be 0.488 µM.

Regarding `Cc1nc(-c2ccc(N3C(=O)C(O)=C(C(=O)C(C)C)C3c3ccccc3OC3CCOCC3)cc2)no1` (stereo not shown) [Compound I-502], the half-inhibitory concentration (IC50) is 0.067 µM.

As for `COCc1ccccc1C1C(C(=O)C(C)C)=C(O)C(=O)N1c1ccc(-c2cscn2)cc1` (stereo not shown) [Compound I-418], the IC50 stood at 0.593 µM.

These data come from patent US8575197B2, “Pyrolinone derivative and pharmaceutical composition comprising the same” (Shionogi & Co., Ltd., priority 2008, dated 2013).
